Among the data in patent publication US8309546B2, “Morpholinopurine derivatives” (Daiichi Sankyo Company, Limited, priority 2008, dated 2012) are inhibition in vivo values, retold here.

The test deals with human endometrial cancer cell strain AN3CA tumor. Kind of test: Anti-tumor effect assay using mouse subcutaneous transplantation model. To be noted: AN3-CA, oral, tumor weight vs negative control, read-out: Anti-tumor effect (tumor growth inhibition rate); for inhibition in vivo at 5 mg/kg/day / inhibition in vivo at 10 mg/kg/day / inhibition in vivo at 2.5 mg/kg/day: 8 or 5 consecutive days depending on compound; for inhibition in vivo at 20 mg/kg/day: consecutive days. The format is in vivo, female nude mouse. The protocol:
A tumor section was prepared from a human endometrial cancer cell strain AN3CA tumor mass formed in a female nude mouse as a subcutaneously transplanted tumor and then a xenograft model was prepared by transplanting the tumor section into female nude mouse. Tumor-bearing mice having an estimated tumor volume (long diameter×short diameter×short diameter/2) of 80 to 200 mm^3 were divided, so that there should be no significant difference in the mean estimated tumor volume and body weight as compared with the negative control group to perform a test. The test compound was orally administered at a predetermined dose for 8 consecutive days. On the following day of the final administration day, tumor-bearing mice were anesthetized and exsanguinated to death and a tumor mass was isolated to measure tumor weight (the compounds of Examples 1, 3, 6, 8, 11, 12, and 14). Furthermore, as a similar test, the test compound was orally administered for 5 consecutive days, animals were sacrificed on the final administration day, and tumor weight was measured (the compounds of Examples 60, 63, 75, 77, 79, 89, 92, 107, 108, 109, 110, and 127).
In all the tests, anti-tumor effect was calculated by the following formula. {1−(tumor weight in compound treatment group/tumor weight in negative control group)}×100

SMILES strings stand for the structures.

`CC(C)Cn1c(N2CCN(S(C)(=O)=O)CC2)nc2c(N3CCOCC3)nc(-c3cnc(N)nc3)nc21` [Example 1, 5-{9-Isobutyl-8-[4-(methylsulfonyl)piperazin-1-yl]-6-morpholin-4-yl-9H-purin-2-yl}pyrimidin-2-amine]: the inhibition in vivo at 5 mg/kg/day amounted to 79% and the inhibition in vivo at 10 mg/kg/day turned out to be 92%.
The matching figures for `CC(=O)N1CCN(c2nc3c(N4CCOCC4)nc(-c4cnc(N)nc4)nc3n2CC(C)C)CC1` [Example 2, 5-[8-(4-Acetylpiperazin-1-yl)-9-isobutyl-6-morpholin-4-yl-9H-purin-2-yl]pyrimidin-2-amine]: 44% and 70%.
Turning to `CS(=O)(=O)N1CCN(c2nc3c(N4CCOCC4)nc(-c4cnc(N)nc4)nc3n2CC2CC2)CC1` [Example 3, 5-{9-(Cyclopropylmethyl)-8-[4-(methylsulfonyl)piperazin-1-yl]-6-morpholin-4-yl-9H-purin-2-yl}pyrimidin-2-amine], the inhibition in vivo at 5 mg/kg/day turned out to be 75% and the inhibition in vivo at 10 mg/kg/day was 86%.
The matching figures for `Cc1nc(N)ncc1-c1nc(N2CCOCC2)c2nc(N3CCN(S(C)(=O)=O)CC3)n(CC3CC3)c2n1` [Example 6, 5-{9-(Cyclopropylmethyl)-8-[4-(methylsulfonyl)piperazin-1-yl]-6-morpholin-4-yl-9H-purin-2-yl}-4-methylpyrimidin-2-amine]: 66% and 69%.
For the compound `CS(=O)(=O)N1CCN(c2nc3c(N4CCOCC4)nc(-c4cnc(N)nc4)nc3n2CC(F)(F)F)CC1` [Example 8, 5-{8-[4-(Methylsulfonyl)piperazin-1-yl]-6-morpholin-4-yl-9-(2,2,2-trifluoroethyl)-9H-purin-2-yl}pyrimidin-2-amine], the inhibition in vivo at 2.5 mg/kg/day is 72% and the inhibition in vivo at 5 mg/kg/day amounted to 93%.
With `CC(=O)N1CCN(c2nc3c(N4CCOCC4)nc(-c4cnc(N)nc4)nc3n2CC2CC2)CC1` [Example 10, 5-[8-(4-Acetylpiperazin-1-yl)-9-(cyclopropylmethyl)-6-morpholin-4-yl-9H-purin-2-yl]pyrimidin-2-amine], the inhibition in vivo at 10 mg/kg/day was 39% and the inhibition in vivo at 20 mg/kg/day was 73%.
As for `CNc1ncc(-c2nc(N3CCOCC3)c3nc(N4CCN(S(C)(=O)=O)CC4)n(CC(F)(F)F)c3n2)cn1` [Example 11, N-Methyl-5-{8-[4-(methylsulfonyl)piperazin-1-yl]-6-morpholin-4-yl-9-(2,2,2-trifluoroethyl)-9H-purin-2-yl}pyrimidin-2-amine], the inhibition in vivo at 2.5 mg/kg/day turned out to be 68% and the inhibition in vivo at 5 mg/kg/day was 85%.
With `C[C@@H]1CN(c2nc3c(N4CCOCC4)nc(-c4cnc(N)nc4)nc3n2CC(F)(F)F)C[C@H](C)N1` [Example 14, 5-[8-(cis-3,5-Dimethylpiperazin-1-yl)-6-morpholin-4-yl-9-(2,2,2-trifluoroethyl)-9H-purin-2-yl]pyrimidin-2-amine], the inhibition in vivo at 5 mg/kg/day was found to be 64% and the inhibition in vivo at 10 mg/kg/day was 82%.
The matching figures for `CC(C)Cn1c(N2CCN(S(C)(=O)=O)[C@@H](C)C2)nc2c(N3CCOCC3)nc(-c3cnc(N)nc3)nc21` [Example 53, 5-{9-Isobutyl-8-[(3S)-3-methyl-4-(methylsulfonyl)piperazin-1-yl]-6-morpholin-4-yl-9H-purin-2-yl}pyrimidin-2-amine]: 45% and 68%.
In the case of `CC(C)Cn1c(N2CCN(S(C)(=O)=O)[C@H](C)C2)nc2c(N3CCOCC3)nc(-c3cnc(N)nc3)nc21` [Example 54, 5-{9-Isobutyl-8-[(3R)-3-methyl-4-(methylsulfonyl)piperazin-1-yl]-6-morpholin-4-yl-9H-purin-2-yl}pyrimidin-2-amine], the inhibition in vivo at 10 mg/kg/day was found to be 74% and the inhibition in vivo at 20 mg/kg/day was 82%.
For `CC(C)Cn1c(N2CCN(C(=O)CN(C)C)CC2)nc2c(N3CCOCC3)nc(-c3cnc(N)nc3)nc21` [Example 55, 5-(8-{4-[(Dimethylamino)acetyl]piperazin-1-yl}-9-isobutyl-6-morpholin-4-yl-9H-purin-2-yl)pyrimidin-2-amine], in that order: 32% and 59%.
As for `CC(=O)N1CCN(c2nc3c(N4CCOCC4)nc(-c4cnc(N)nc4)nc3n2CC(F)(F)F)C[C@H]1C` [Example 60, 5-{8-[(3R)-4-Acetyl-3-methylpiperazin-1-yl]-6-morpholin-4-yl-9-(2,2,2-trifluoroethyl)-9H-purin-2-yl}pyrimidin-2-amine], under “120 h, 1.5 mg/kg/day, 5 consecutive days”, the inhibition in vivo at 1.5 mg/kg/day was 64%. In addition, where the note is “120 h, 6 mg/kg/day, 5 consecutive days”, the inhibition in vivo at 6 mg/kg/day was 89%.
Take `CC(=O)N1CCN(c2nc3c(N4CCOCC4)nc(-c4cnc(N)nc4)nc3n2CC(F)(F)F)C[C@@H]1C` [Example 63, 5-{8-[(3S)-4-Acetyl-3-methylpiperazin-1-yl]-6-morpholin-4-yl-9-(2,2,2-trifluoroethyl)-9H-purin-2-yl}pyrimidin-2-amine]: the inhibition in vivo at 0.875 mg/kg/day (120 h, 0.875 mg/kg/day, 5 consecutive days) turned out to be 52%. For the same compound, the inhibition in vivo at 3.5 mg/kg/day (120 h, 3.5 mg/kg/day, 5 consecutive days) was 88%.
With `CC[C@H]1CN(c2nc3c(N4CCOCC4)nc(-c4cnc(N)nc4)nc3n2CC(F)(F)F)CCN1C(C)=O` [Example 75, 5-{8-[(3S)-4-Acetyl-3-ethylpiperazin-1-yl]-6-morpholin-4-yl-9-(2,2,2-trifluoroethyl)-9H-purin-2-yl}pyrimidin-2-amine], the inhibition in vivo at 1.875 mg/kg/day (120 h, 1.875 mg/kg/day, 5 consecutive days) stood at 44%. In addition, the inhibition in vivo at 7.5 mg/kg/day (120 h, 7.5 mg/kg/day, 5 consecutive days) came out at 77%.
For the compound `CC[C@H]1CN(c2nc3c(N4CCOCC4)nc(-c4cnc(N)nc4)nc3n2CC(F)(F)F)CCN1C(=O)[C@H](C)O` [Example 77, (2S)-1-{(2S)-4-[2-(2-Aminopyrimidin-5-yl)-6-morpholin-4-yl-9-(2,2,2-trifluoroethyl)-9H-purin-8-yl]-2-ethylpiperazin-1-yl}-1-oxopropan-2-ol], the inhibition in vivo at 3.75 mg/kg/day (120 h, 3.75 mg/kg/day, 5 consecutive days) came to 47%. Also, the inhibition in vivo at 15 mg/kg/day (120 h, 15 mg/kg/day, 5 consecutive days) was determined as 84%.
Consider `CC[C@@H]1CN(c2nc3c(N4CCOCC4)nc(-c4cnc(N)nc4)nc3n2CC(F)(F)F)CCN1C(=O)[C@H](C)O` [Example 79], for which the inhibition in vivo at 2.5 mg/kg/day came out at 27% and the inhibition in vivo at 10 mg/kg/day came to 59%.
For the compound `CC(C)Cn1c(N2CCN(C(=O)C[C@@H](C)O)CC2)nc2c(N3CCOCC3)nc(-c3cnc(N)nc3)nc21` [Example 81, (2R)-4-{4-[2-(2-Aminopyrimidin-5-yl)-9-isobutyl-6-morpholin-4-yl-9H-purin-8-yl]piperazin-1-yl}-4-oxobutan-2-ol], the inhibition in vivo at 5 mg/kg/day worked out at 37% and the inhibition in vivo at 10 mg/kg/day was 74%.
For `C[C@H](O)C(=O)N1CCN(c2nc3c(N4CCOCC4)nc(-c4cnc(N)nc4)nc3n2CC2CC2)CC1` [Example 88, (2S)-1-{4-[2-(2-Aminopyrimidin-5-yl)-9-(cyclopropylmethyl)-6-morpholin-4-yl-9H-purin-8-yl]piperazin-1-yl}-1-oxopropan-2-ol], in that order: 30% and 54%.
For `CC(C)Cn1c(N2CCN(C(=O)CO)CC2)nc2c(N3CCOCC3)nc(-c3cnc(N)nc3)nc21` [Example 89, 2-{4-[2-(2-Aminopyrimidin-5-yl)-9-isobutyl-6-morpholin-4-yl-9H-purin-8-yl]piperazin-1-yl}-2-oxoethanol], in that order: 56% and 69%.
The matching figures for `CC(C)Cn1c(N2CCN(C=O)CC2)nc2c(N3CCOCC3)nc(-c3cnc(N)nc3)nc21` [Example 90, 4-[2-(2-Aminopyrimidin-5-yl)-9-isobutyl-6-morpholin-4-yl-9H-purin-8-yl]piperazine-1-carboaldehyde]: 40% and 80%.
For `C[C@H](O)C(=O)N1CCN(c2nc3c(N4CCOCC4)nc(-c4cnc(N)nc4)nc3n2CC2CC2)C[C@@H]1C` [Example 92, (2S)-1-{(2S)-4-[2-(2-Aminopyrimidin-5-yl)-9-(cyclopropylmethyl)-6-morpholin-4-yl-9H-purin-8-yl]-2-methylpiperazin-1-yl}-1-oxopropan-2-ol], the inhibition in vivo at 5 mg/kg/day stood at 52% and the inhibition in vivo at 10 mg/kg/day stood at 61%.
`CC(C)Cn1c(N2CCN(C(=O)[C@@H](C)O)CC2)nc2c(N3CCOCC3)nc(-c3cnc(N)nc3)nc21` [Example 93]: the inhibition in vivo at 2.5 mg/kg/day worked out at 42% and the inhibition in vivo at 5 mg/kg/day turned out to be 54%.
